Data as given in publication PMC7617869, “Molecular glues that inhibit deubiquitylase activity and inflammatory signaling” (Nature Structural & Molecular Biology, 2025).
Several values for one entry are separate records, joined by “and”; a condition that tells them apart may be missing. Equal values may be shown once.

How the values were obtained:
Assay type in all cases: biochemical
ARISC = target: T1, ARISC (Homo sapiens, UniProt P46736+Q6UWZ7+Q9NXR7); assay: ARISC IQF DUB activity assay; conditions: Fig. 1g, ARISC
T1 construct: full-length BRISC (FL), ARISC (FL); made in house; host or cells: Spodoptera frugiperda (Sf9) insect cells, MultiBac
Procedure: (§1) IQF assays were performed in DUB reaction buffer containing 50 mM HEPES–NaOH pH 7.0, 100 mM NaCl, 0.1 mg ml^−1 BSA, 1 mM DTT and 0.03% v/v Brij-35. […] The final concentration of BRISC WT, all BRISC mutants, HsBRISCΔLoop, MmBRISC and DrBRISCΔNΔC was 1 nM. Other enzymes were tested at the following concentrations: 5 nM ARISC (FL), 10 nM CfBRISCΔNΔC, 250 nM AMSH* (ref. [43]), 500 nM USP2 and 1 μM trypsin (Sigma, 9002-07-7). For Michaelis–Menten experiments, 1 nM BRISC with 0–1 μM IQF K63-linked diubiquitin substrate was used. Michaelis–Menten analyses and Lineweaver–Burk plots were calculated using GraphPad Prism (version 9.0).
(§2) To assess enzymatic activity, BRISC complexes were diluted to concentrations between 1 nM and 50 nM. […] Then, 20-μl enzyme reactions were carried out in 384-well black flat-bottom low-flange plates (Corning, 35373). DUB activity was measured using IQF K63-linked diubiquitin (LifeSensors, DU6303) at 50 nM. Cleaved diubiquitin was monitored by measuring fluorescence intensity (excitation, 544 nm; emission, 575 nm; dichroic mirror, 560 nm). Fluorescence intensity was measured every minute for 30 min at 30 °C. Fluorescence intensity units were plotted against time to generate a linear reaction progress curve, where the initial velocity (V0) corresponds to the gradient of the curve (typically achieved within 15 min). IC50 values were calculated using the GraphPad Prism (version 9.0) built-in dose–response equation for inhibitor concentration versus response (variable slope).

BRISC (FL) = target: T2, BRISC (FL) (Homo sapiens, UniProt P46736+Q15018+Q9NXR7); assay: In-gel deubiquitylation assay, TAMRA-labeled K63-tetraubiquitin, BRISC; conditions: 10 μM or 100 μM inhibitor
T2 construct: full-length BRISC (FL), ARISC (FL); made in house; host or cells: Spodoptera frugiperda Sf9 insect cells (MultiBac)
Procedure: The inhibitor capzimin (Merck) was diluted in 1 mM DTT and incubated for 30 min at room temperature to reduce disulfide bonds required for inhibitor activity. […] DUBs were incubated with 750 nM TAMRA-labeled K63-tetraubiquitin (LifeSensors, SI6304T) for 10 min at 30 °C. Reactions were quenched by adding 2.5 μl of 4× SDS–PAGE loading dye (240 mM Tris-HCl pH 6.8, 40% v/v glycerol, 8% w/v SDS, 0.04% w/v bromophenol blue and 5% v/v β-mercaptoethanol). The samples were resolved on 4–12% NuPAGE Bis–Tris gels (Thermo Fisher Scientific). Gels were scanned using an iBright FL 1500 (Thermo Fisher Scientific) (excitation, 515–545 nm; emission, 568–617 nm; exposure, 500 ms).

trypsin = assay: Trypsin IQF diubiquitin selectivity assay; conditions: Fig. 1g, Trypsin
Procedure: BRISC DUB activity was measured at room temperature using 1 nM BRISC and 500 nM IQF diubiquitin K63 substrate (LifeSensors, DU6303) in the presence of DMSO and compounds at 10 μM (final concentrations). Assays were performed in 384-well black flat-bottom low-flange plates (Corning, 35373) in buffer containing 50 mM HEPES–NaOH pH 7.0, 100 mM NaCl, 1 mg ml^−1 BSA, 1 mM DTT and 0.03% v/v Brij-35. Then, 10 μl of twofold concentrated enzyme stock was dispensed, followed by transfer of 200 nl of compounds (1 mM stock) using a 384-pin tool and a 15-min incubation at room temperature. Then, 10 μl of twofold concentrated substrate stock was added and the reaction was monitored by measuring fluorescence intensity (excitation, 540 nm; emission, 580 nm) after 20-min incubation at room temperature and ~50% of substrate was consumed. Orthogonal assays for verification of H20 and P12 hit compounds using USP2 (100 nM) and trypsin (125 nM) were performed in identical conditions.
as §1, §2

**Q.** Which results are given for `O=C(NC1C2CNCC21)c1nn(C(=O)c2c(Cl)cccc2Cl)cc1NC(=O)c1c(Cl)cccc1Cl` (stereo not shown) [FX-171-C]?
**A.** Normalised V0 (ARISC; FX-171-C 0.02 μM): 1.1225 and 0.966 and 1.021; Normalised V0 (ARISC; FX-171-C 0.0399999 μM): 1.087 and 0.9846 and 0.8911; Normalised V0 (ARISC; FX-171-C 0.0599997 μM): 1.028 and 0.9352 and 0.9674; Normalised V0 (ARISC; FX-171-C 0.0799994 μM): 1.023 and 0.9476 and 0.8942; Normalised V0 (ARISC; FX-171-C 0.119998 μM): 0.9409 and 0.9459 and 1.0338; Normalised V0 (ARISC; FX-171-C 0.199996 μM): 1.019 and 0.9437 and 0.9099; Normalised V0 (ARISC; FX-171-C 0.799936 μM): 0.9597 and 0.9609 and 1.054; Normalised V0 (ARISC; FX-171-C 1.25984 μM): 0.9789 and 0.9339 and 0.958; Normalised V0 (ARISC; FX-171-C 1.9996 μM): 1.042 and 0.9796 and 1.015; Normalised V0 (ARISC; FX-171-C 3.159 μM): 0.8585 and 0.91 and 0.9812; Normalised V0 (ARISC; FX-171-C 5.19739 μM): 0.9682 and 0.9452 and 1.064; Normalised V0 (ARISC; FX-171-C 7.99364 μM): 0.9509 and 0.8953 and 0.9841; Normalised V0 (ARISC; FX-171-C 12.7839 μM): 1.013 and 0.9875 and 0.9597; Normalised V0 (ARISC; FX-171-C 19.96 μM): 0.9552 and 0.8845 and 0.9378; Normalised V0 (ARISC; FX-171-C 31.4999 μM): 0.9912 and 0.9889 and 0.9686; Normalised V0 (ARISC; FX-171-C 50.147 μM): 0.9345 and 0.8543 and 0.967; Normalised V0 (ARISC; FX-171-C 79.7601 μM): 0.9819 and 0.9178 and 0.8968; Normalised V0 (ARISC; FX-171-C 125.99 μM): 0.9989 and 0.9716 and 0.9683; Normalised V0 (ARISC; FX-171-C 199.922 μM): 0.744 and 0.5764 and 0.798; inhibition of BRISC cleavage of K63-linked tetraubiquitin (BRISC (FL)): inhibit; Normalised V0 (trypsin; FX-171-C 0.02 μM): 0.9754 and 1.082 and 1.037; Normalised V0 (trypsin; FX-171-C 0.0399999 μM): 0.8958 and 1.072 and 0.9551; Normalised V0 (trypsin; FX-171-C 0.0599997 μM): 0.994 and 1.174 and 1.005; Normalised V0 (trypsin; FX-171-C 0.0799994 μM): 0.9908 and 1.085 and 0.9856; Normalised V0 (trypsin; FX-171-C 0.119998 μM): 0.909 and 1.102 and 1.137; Normalised V0 (trypsin; FX-171-C 0.199996 μM): 1.048 and 1.0751 and 0.9569; Normalised V0 (trypsin; FX-171-C 0.499975 μM): 0.9677 and 1.122 and 0.9918; Normalised V0 (trypsin; FX-171-C 0.799936 μM): 0.9633 and 1.093 and 0.8806; Normalised V0 (trypsin; FX-171-C 1.25984 μM): 1.083 and 0.9949 and 1.069; Normalised V0 (trypsin; FX-171-C 1.9996 μM): 1.032 and 1.136 and 0.9684; Normalised V0 (trypsin; FX-171-C 3.159 μM): 0.959 and 1.075 and 1.119; Normalised V0 (trypsin; FX-171-C 5.19739 μM): 1.013 and 1.118 and 1.082; Normalised V0 (trypsin; FX-171-C 7.99364 μM): 1.036 and 1.142 and 1.053; Normalised V0 (trypsin; FX-171-C 12.7839 μM): 1.107 and 1.095 and 0.9652; Normalised V0 (trypsin; FX-171-C 19.96 μM): 0.9382 and 0.9859 and 0.9654; Normalised V0 (trypsin; FX-171-C 31.4999 μM): 0.9264 and 1.08 and 0.8456; Normalised V0 (trypsin; FX-171-C 50.147 μM): 0.8123 and 0.9453 and 0.8818; Normalised V0 (trypsin; FX-171-C 79.7601 μM): 0.7444 and 0.9554 and 0.7546; Normalised V0 (trypsin; FX-171-C 125.99 μM): 0.6817 and 0.8207 and 0.6739; Normalised V0 (trypsin; FX-171-C 199.922 μM): 0.4322 and 0.4467 and 0.4966
